Results reported in PMC9186531, “Biochemical and structural characterization of the flavodoxin-like domain of the Schizosaccharomyces japonicus putative tRNA ^Phe 4-demethylwyosine synthase Tyw1 in complex with FMN” (microPublication Biology, 2022).

Target: T1, Tyw1 30-251 (Schizosaccharomyces japonicus, UniProt B6K6D6)
T1 construct: flavodoxin-like domain with N-terminal extension, residues 30-251; N-terminal TRX-6His or MBP-6His tag with TEV site, tag cleaved; E. coli KRX; monomer; calculated mass 24940 Da, MS 25010 Da
T1 sequence (B6K6D6 30-251): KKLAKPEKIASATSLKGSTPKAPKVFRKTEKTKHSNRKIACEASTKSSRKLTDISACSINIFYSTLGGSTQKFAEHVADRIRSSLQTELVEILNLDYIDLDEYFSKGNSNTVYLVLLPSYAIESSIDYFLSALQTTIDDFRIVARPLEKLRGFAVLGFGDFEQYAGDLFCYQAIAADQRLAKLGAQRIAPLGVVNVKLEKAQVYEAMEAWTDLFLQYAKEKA
Test: X-ray crystal structure (molecular replacement, […] A)
Assay type: binding
Details: co-purified oxidized FMN; crystals pH 8.5, 288 K; unit occupancy

## Cc1cc2nc3c(=O)[nH]c(=O)nc-3n(C[C@H](O)[C@H](O)[C@H](O)COP(=O)(O)O)c2cc1C [FMN]
  X-ray crystal structure (molecular replacement, 1.5 A): FMN density was strong and was modeled with unit occupancy in both structures.
